The values that follow come from PubChem BioAssay AID220 (DTP/NCI, 2004).

The assay deals with CD8F1 mice, subcutaneous mammary adenocarcinoma, T/C%. In words: NCI In Vivo Anticancer Drug Screen. Data for tumor model Mammary Adenocarcinoma CD8F1 (subcutaneous) in CD8F1. Conditions: higher = larger tumour. In outline:
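Antitumor activity is assessed in transplantable-tumor mice by comparing the treated group with a vehicle-treated control group. Survival or tumor size serves as the measure, reported as T divided by C.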

Setting [1] is: endpoint: median tumor weight change, dose: 62.5 mg/kg/injection, schedule: Q01DX001 (ip), vehicle: saline with Tween-80.
The mark [2] stands for this setting: endpoint: median tumor weight change, dose: 125.0 mg/kg/injection, schedule: Q01DX001 (ip), vehicle: saline with Tween-80.
Where [3] appears, read: endpoint: median tumor weight change, dose: 500.0 mg/kg/injection, schedule: Q01DX001 (ip), vehicle: saline with Tween-80.
Setting [4] is: endpoint: median tumor weight change, dose: 125.0 mg/kg/injection, schedule: Q01DX001 (ip), vehicle: saline.
The mark [5] stands for this setting: endpoint: median tumor weight change, dose: 250.0 mg/kg/injection, schedule: Q01DX001 (ip), vehicle: saline.
Setting [6] is: endpoint: median tumor weight change, dose: 500.0 mg/kg/injection, schedule: Q01DX001 (ip), vehicle: saline.
[7] abbreviates: endpoint: median tumor weight change, dose: 1000.0 mg/kg/injection, schedule: Q01DX001 (ip), vehicle: saline.
The mark [8] stands for this setting: endpoint: median tumor weight (est.), dose: 1.0 mg/kg/injection, schedule: Q07DX006 (ip), vehicle: saline.
Setting [9] is: endpoint: median tumor weight (est.), dose: 2.0 mg/kg/injection, schedule: Q07DX005 (ip), vehicle: saline.
[10] abbreviates: endpoint: median tumor weight (est.), dose: 50.0 mg/kg/injection, schedule: Q07DX005 (ip), vehicle: saline with Tween-80.
Where [11] appears, read: endpoint: median tumor weight (est.), dose: 100.0 mg/kg/injection, schedule: Q07DX005 (ip), vehicle: saline with Tween-80.
The mark [12] stands for this setting: endpoint: median tumor weight change, dose: 250.0 mg/kg/injection, schedule: Q01DX001 (ip), vehicle: saline with Tween-80.

Several values for one entry are separate records, joined by “and”; a condition that tells them apart may be missing. Equal values may be shown once. Inconclusive results are not listed.

As for `COc1cc(C(=O)c2cocc2C(=O)c2ccc3c(c2)OCO3)cc(OC)c1OC`, the T/C runs as follows: (endpoint: median tumor weight change, dose: 125.0 mg/kg/injection, schedule: Q01DX001 (ip), vehicle: Klucel (hydroxypropylcellulose) (HPC)) 92 % of control; (endpoint: median tumor weight change, dose: 250.0 mg/kg/injection, schedule: Q01DX001 (ip), vehicle: Klucel (hydroxypropylcellulose) (HPC)) 73 % of control; (endpoint: median tumor weight change, dose: 500.0 mg/kg/injection, schedule: Q01DX001 (ip), vehicle: Klucel (hydroxypropylcellulose) (HPC)) 62 % of control; (endpoint: median tumor weight change, dose: 1000.0 mg/kg/injection, schedule: Q01DX001 (ip), vehicle: Klucel (hydroxypropylcellulose) (HPC)) 40 % of control.
Consider `COc1cc(OC)c(NC(=O)ON2C(=O)c3ccccc3C2=O)cc1Cl`, for which the T/C reads like this: (endpoint: median tumor weight change, dose: 31.25 mg/kg/injection, schedule: Q01DX001 (ip), vehicle: saline with Tween-80) 62 % of control; under setting [1], 81 % of control; under setting [2], 92 % of control; under setting [3], 26 % of control.
For `O=C(O)C1CC(O)CN1` (centres undefined), the T/C by setting is: under setting [4], 71 % of control; under setting [5], 64 % of control and 78 % of control; under setting [6], 59 % of control and 69 % of control; under setting [7], 66 % of control and 70 % of control; (endpoint: median tumor weight change, dose: 2000.0 mg/kg/injection, schedule: Q01DX001 (ip), vehicle: saline) 13 % of control and 15 % of control.
Consider `COC1C(O)C(C)OC(OC2C(Oc3cccc4c(O)c5c(=O)oc6ccc(C)c7c(=O)oc(c34)c5c67)OC(C)C(O)C2O)C1O` (centres undefined), for which the T/C was 73 % of control (endpoint: median tumor weight (est.), dose: 12.5 mg/kg/injection, schedule: Q07DX005 (ip), vehicle: Klucel (hydroxypropylcellulose) (HPC)); 75 % of control (endpoint: median tumor weight (est.), dose: 25.0 mg/kg/injection, schedule: Q07DX005 (ip), vehicle: Klucel (hydroxypropylcellulose) (HPC)); 50 % of control (endpoint: median tumor weight (est.), dose: 50.0 mg/kg/injection, schedule: Q07DX005 (ip), vehicle: Klucel (hydroxypropylcellulose) (HPC)).
In the case of `Cc1c(N)nc([C@H](CC(N)=O)NC[C@H](N)C(N)=O)nc1C(=O)N[C@H](C(=O)N[C@H](C)[C@@H](O)[C@H](C)C(=O)N[C@H](C(=O)NCCc1nc(-c2nc(C(=O)NCCC[S+](C)C)cs2)cs1)[C@@H](C)O)C(OC1OC(CO)C(O)C(O)C1OC1OC(CO)C(O)C(OC(N)=O)C1O)c1cnc[nH]1` (some centres undefined), the T/C runs as follows: under setting [8], 93 % of control; under setting [9], 25 % of control; (endpoint: median tumor weight (est.), dose: 2.0 mg/kg/injection, schedule: Q07DX006 (ip), vehicle: saline) 100 % of control; (endpoint: median tumor weight (est.), dose: 8.0 mg/kg/injection, schedule: Q07DX006 (ip), vehicle: saline) 55 % of control; (endpoint: median tumor weight (est.), dose: 16.0 mg/kg/injection, schedule: Q07DX005 (ip), vehicle: saline) 10 % of control and 13 % of control and 23 % of control; (endpoint: median tumor weight (est.), dose: 16.0 mg/kg/injection, schedule: Q07DX006 (ip), vehicle: saline) 61 % of control. Besides, the T/C was 6 % of control and 7 % of control (endpoint: median tumor weight (est.), dose: 32.0 mg/kg/injection, schedule: Q07DX005 (ip), vehicle: saline); 8 % of control (endpoint: median tumor weight (est.), dose: 32.0 mg/kg/injection, schedule: Q07DX006 (ip), vehicle: saline); 2 % of control (endpoint: median tumor weight (est.), dose: 64.0 mg/kg/injection, schedule: Q07DX005 (ip), vehicle: saline); 124 % of control (endpoint: median tumor weight change, dose: 4.0 mg/kg/injection, schedule: Q01DX001 (ip), vehicle: saline).
Take `Cc1cc(NCCCCCCNc2cc(C)nc3cc(N(C)C)ccc23)c2ccc(N(C)C)cc2n1`: the T/C runs as follows: (endpoint: median tumor weight change, dose: 31.0 mg/kg/injection, schedule: Q01DX001 (ip), vehicle: distilled water + Tween-80 + alcohol) 42 % of control; (endpoint: median tumor weight change, dose: 62.0 mg/kg/injection, schedule: Q01DX001 (ip), vehicle: distilled water + Tween-80 + alcohol) 103 % of control; (endpoint: median tumor weight change, dose: 125.0 mg/kg/injection, schedule: Q01DX001 (ip), vehicle: distilled water + Tween-80 + alcohol) 36 % of control.
As to `OCCCN1CCCCC1CO` (centres undefined), the T/C is 78 % of control under setting [4], 103 % of control under setting [5], 105 % of control under setting [6] and 103 % of control under setting [7].
Consider `CC(C)NCC(O)COc1ccc(O)c(O)c1` (centres undefined), for which the T/C reads like this: (endpoint: median tumor weight change, dose: 1.5 mg/kg/injection, schedule: Q01DX001 (ip), vehicle: saline) 84 % of control; (endpoint: median tumor weight change, dose: 6.0 mg/kg/injection, schedule: Q01DX001 (ip), vehicle: saline) 89 % of control and 105 % of control; (endpoint: median tumor weight change, dose: 12.0 mg/kg/injection, schedule: Q01DX001 (ip), vehicle: saline) 72 % of control and 97 % of control; (endpoint: median tumor weight change, dose: 24.0 mg/kg/injection, schedule: Q01DX001 (ip), vehicle: saline) 102 % of control; under setting [4], 77 % of control and 96 % of control.
Consider `CC1(C)OC2C(COC(=O)c3ccc([N+](=O)[O-])cc3)OC(NC(=O)N(CCCl)N=O)C2O1` (centres undefined), for which the T/C by setting is: (endpoint: median tumor weight (est.), dose: 1.25 mg/kg/injection, schedule: Q07DX005 (ip), vehicle: saline with Tween-80) 46 % of control; (endpoint: median tumor weight (est.), dose: 25.0 mg/kg/injection, schedule: Q07DX005 (ip), vehicle: saline with Tween-80) 51 % of control; under setting [10], 16 % of control; under setting [11], 36 % of control.
With `CO[C@H](C(=O)[C@@H](O)[C@@H](C)O)[C@@H]1Cc2cc3cc(OC4CC(OC5CC(O)C(O)C(C)O5)C(O)C(C)O4)c(C)c(O)c3c(O)c2C(=O)[C@H]1OC1CC(OC2CC(OC3CC(C)(O)C(O)C(C)O3)C(O)C(C)O2)C(O)C(C)O1` (some centres undefined), the T/C is 76 % of control (endpoint: median tumor weight (est.), dose: 0.25 mg/kg/injection, schedule: Q07DX006 (ip), vehicle: saline); 104 % of control (endpoint: median tumor weight (est.), dose: 0.5 mg/kg/injection, schedule: Q07DX006 (ip), vehicle: saline); 78 % of control under setting [8].
Take `FC(F)(F)c1nc2nc(Cl)c(Cl)nc2[nH]1`: the T/C is, setting by setting: under setting [1], 77 % of control; under setting [2], 114 % of control; under setting [12], 74 % of control.
Regarding `CC(=O)Nc1cscc1NC(C)=O`, the T/C runs as follows: under setting [12], 73 % of control and 85 % of control; under setting [3], 71 % of control and 73 % of control; (endpoint: median tumor weight change, dose: 1000.0 mg/kg/injection, schedule: Q01DX001 (ip), vehicle: saline with Tween-80) 74 % of control and 91 % of control.
As for `Nc1ccc(Cl)cc1N`, the T/C (endpoint: median tumor weight (est.), dose: 12.5 mg/kg/injection, schedule: Q07DX005 (ip), vehicle: saline + alcohol) is 92 % of control; the T/C (endpoint: median tumor weight (est.), dose: 25.0 mg/kg/injection, schedule: Q07DX005 (ip), vehicle: saline + alcohol) is 100 % of control; the T/C (endpoint: median tumor weight (est.), dose: 50.0 mg/kg/injection, schedule: Q07DX005 (ip), vehicle: saline + alcohol) was 100 % of control; the T/C (endpoint: median tumor weight (est.), dose: 100.0 mg/kg/injection, schedule: Q07DX005 (ip), vehicle: saline + alcohol) is 88 % of control; the T/C (endpoint: median tumor weight (est.), dose: 200.0 mg/kg/injection, schedule: Q07DX005 (ip), vehicle: saline + alcohol) was 123 % of control.
`ClC(Cl)=C(Cl)Cl`: the T/C (endpoint: median tumor weight change, dose: 62.5 mg/kg/injection, schedule: Q01DX001 (ip), vehicle: other) is 157 % of control and the T/C (endpoint: median tumor weight change, dose: 125.0 mg/kg/injection, schedule: Q01DX001 (ip), vehicle: other) was 191 % of control.
For `CCOC(OCC)C(=O)OCC(=O)[C@]1(O)Cc2c(O)c3c(c(O)c2[C@@H](OC2CC(N)C(O)C(C)O2)C1)C(=O)c1c(OC)cccc1C3=O` (some centres undefined), the T/C reads like this: (endpoint: median tumor weight (est.), dose: 0.5 mg/kg/injection, schedule: Q07DX005 (ip), vehicle: water) 166 % of control; (endpoint: median tumor weight (est.), dose: 1.0 mg/kg/injection, schedule: Q07DX005 (ip), vehicle: saline) 85 % of control; (endpoint: median tumor weight (est.), dose: 1.0 mg/kg/injection, schedule: Q07DX005 (ip), vehicle: water) 50 % of control; under setting [9], 47 % of control; (endpoint: median tumor weight (est.), dose: 2.0 mg/kg/injection, schedule: Q07DX005 (ip), vehicle: water) 74 % of control; (endpoint: median tumor weight (est.), dose: 4.0 mg/kg/injection, schedule: Q07DX005 (ip), vehicle: saline) 20 % of control. The T/C (endpoint: median tumor weight (est.), dose: 4.0 mg/kg/injection, schedule: Q07DX005 (ip), vehicle: water) is 24 % of control.
With `Cc1ncc([N+](=O)[O-])n1CCSC(N)=O`, the T/C reads like this: (endpoint: median tumor weight (est.), dose: 12.5 mg/kg/injection, schedule: Q07DX005 (ip), vehicle: saline with Tween-80) 124 % of control and 99 % of control; under setting [10], 123 % of control; under setting [11], 96 % of control; (endpoint: median tumor weight (est.), dose: 400.0 mg/kg/injection, schedule: Q07DX005 (ip), vehicle: saline with Tween-80) 66 % of control.
